No end group written: not given here.
Tests used:
[1] = biological target: HLA-DRA1*0101, DRB1*0101 (DR1) (Homo sapiens, UniProt P01903+P01911, A100R/D57E/F55L/F60I/F76Y/I96L/L162R/M171V/P40L/Q125E/R42F/V115G/Y59C); assay: DR1
Experimental: (§1) Table printed on a drawing sheet, Figure 9
(§2) The patent's description of the figure: FIG. 9: Diverse patterns of in vitro peptide-MHC II binding for peptides 9K1, 17JK and 15N3K. Binding of peptides 9K1, 17JK and 15N3K to recombinant HLA-DRA1*0101, DRB1*0101 (DR1), DRB1*1501 (DR2), DRB1*0301 (DR3), DRB1*0401 (DR4), DRB1*1101 (DR11), DRB1*0405 (DR4*05) and DRB1*0901 (DR9) was assessed in vitro. IC50 values (µM) are presented and colour-coded per HLA-DR molecule. Low values (green) indicate strong binding, high values (red) indicate low(er) binding.
FIG. 9 depicts IC50 (µM) values of peptides 9K1K, 17JK and 15N3K binding to the indicated HLA-DR molecules and competing with a known competitor peptide. Values should be compared only within each HLA-DR molecule. Low IC50 values (green) indicate the strongest binder per HLA-DR molecule. Highest values per HLA-DR molecule (red) are indicative of the lowest binder for that HLA-DR molecule. Intermediate values are indicated in orange. […]
(§3) First copying reader's note: The sheet prints no unit; per the patent description the values are IC50 (µM) for peptide binding to the named HLA-DR molecules, with cell shading coding relative binding strength per HLA-DR molecule.
Where the first naming reader finds the target: description_of_the_figure: recombinant HLA-DRA1*0101, DRB1*0101 (DR1)

[2] = biological target: HLA-DRA1*0101, DRB1*0405 (DR4*05) (Homo sapiens, UniProt P01903+P01911, A100R/A169T/D86S/F76Y/I96L/K127E/L162R/M171V/N62H/P40V/Q125Y/R42H/S133A/S149N/S66Y/V115G/V209L/W38E); assay: DR4*05
Experimental: as §1
Head of the field: DR4*05
as §2
(§4) FIG. 9 depicts IC50 (µM) values of peptides 9K1K, 17JK and 15N3K binding to the indicated HLA-DR molecules and competing with a known competitor peptide. Values should be compared only within each HLA-DR molecule. Low IC50 values (green) indicate the strongest binder per HLA-DR molecule. Highest values per HLA-DR molecule (red) are indicative of the lowest binder for that HLA-DR molecule. Intermediate values are indicated in orange. […] So, combining the peptides into a cocktail treatment, makes the treatment less restricted to a certain HLA-DR type.
as §3

[3] = system: SAg-specific hybridoma cells with fresh or fixed APC (VAVY) cells, MHCII; assay: Antigen processing independent presentation system (APIPS) assay; format: cell-based, DR3tg mice; details: 10 or 25 µg/ml peptide, IL-2 ELISA after 48 h
Experimental: FIG. 10: Variants of peptide 15N3K are apitopes. The ability of variants of the 15N3K peptide to behave as apitopes (i.e. bind to an MHCII molecule and be presented to a T cell by an antigen-presenting cell without undergoing antigen processing) was tested using an APIPS assay. DR3tg mice were immunised with SAg and hybridoma’s were generated. 5*10^4 SAg-specific hybridoma cells were cultured with 5*10^4 fresh or fixed commercial APC (VAVY) cells. Cultures were stimulated with 10 or 25 µg/ml of peptide, as indicated in the graph. T cell activation was measured by IL-2 ELISA on supernatants collected after 48 h. The graph represents the mean of duplicate measurements ± SEM.
Apitopes (Antigen Processing-Independent epiTOPES) are capable of binding to an MHCII molecule and stimulating a response from SAg-specific T cells without further antigen processing. Variants of peptide 15N3K (SEQ ID NO: 3) were tested for their ability to bind to an MHCII molecule and be presented to a T cell hybridoma without further antigen processing in an in vitro antigen processing independent presentation system (APIPS) assay. In other words, peptides consisting of parts of peptide 15N3K and peptides with various degrees of sequence identity with peptide 15N3K were tested for their ability to behave as apitopes.
All but three of the peptides are apitopes.
Antigen-specific hybridoma clones were tested for their reactivity to the peptides, presented by fixed or not fixed (fresh) cells (APCs). 5x10^4 cells were cultured with 10 µg/ml and 25 µg/ml peptide and 5x10^4 fixed or fresh APCs. To fix APCs, cells were incubated with 0.5% paraformaldehyde (Merck, Darmstadt, Germany) (pH7) for 5 min at room temperature (RT). The fixation reaction was stopped by adding 0.4 M glycine (Sigma-Aldrich) and washing the cells in RPMI-10% FCS. After 48 h, antigen-induced IL-2 production was measured by ELISA (R&D Systems, Abingdon, UK).

[4] = biological target: HLA-DRA1*0101, DRB1*0901 (DR9) (Homo sapiens, UniProt P01903+P01911, A100R/A103E/D57H/D86V/F55Y/F60I/F76Y/I96F/K127E/L162R/M171V/P40D/Q125H/Q99R/R33Q/R42F/S133A/S66N/T210M/V115G/W38K/Y107V/Y59G/Y89S); assay: DR9
Experimental: as §1, §2, §4, §3

IC50 [1] | IC50 [2] | Substance | Apitope [3] | IC50 [4]
2.16 µM | 17.3 µM | KKKLTFRRDLYFSRVQVYKKK-NH2 [17JK] | – | –
– | – | KKKVIFKKISRDKSVTIYLGKKK-NH2 [15N3K] | Yes | 18.4 µM
